Assay results reported in the supplement of paper PMC11451515.

How the values were obtained:
Assay in all cases: AUC of viability dose-response curve (% viability x log10 dose units); higher = less sensitive
Conditions in all cases: 48 h
NOMO1 = tested on: NOMO1
How it was run: (§1)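 Viability of medium-adapted leukemia cells was measured by CellTiter-Glo One luminescence after 48 h at 37°C with library compounds in DMSO. Doses were 11 threefold steps from 47 μM to 0.79 nM, in 1536-well plates at 500 or 1000 cells/well. Signals were normalised per plate to DMSO and cell-free wells and fitted with a four-parameter log-logistic model on log10 dose. Area under the curve was integrated by trapezoidal rule, with curves exceeding full viability scaled and failed quality-control curves removed.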

P12-Ichikawa = tested on: P12-Ichikawa
How it was run: as §1

SEM cells = tested on: SEM cells
How it was run: as §1

[1] = RPMI 5 mM glucose + 10% dialyzed FBS

SMILES | AUC of viability dose-response curve (NOMO1; HPLM + 10% dialyzed FBS) | AUC of viability dose-response curve (NOMO1; RPMI 5 mM glucose + 10% FBS) | AUC of viability dose-response curve (NOMO1; [1]) | AUC of viability dose-response curve (P12-Ichikawa; HPLM + 10% dialyzed FBS) | AUC of viability dose-response curve (P12-Ichikawa; RPMI 5 mM glucose + 10% FBS) | AUC of viability dose-response curve (P12-Ichikawa; [1]) | AUC of viability dose-response curve (SEM cells; HPLM + 10% dialyzed FBS) | AUC of viability dose-response curve (SEM cells; RPMI 5 mM glucose + 10% FBS) | AUC of viability dose-response curve (SEM cells; [1])
NC/1=N/C(=O)N(/C=N1)[C@@H]2O[C@H](CO)[C@@H](O)[C@H]2O | 430 | 421 | 396 | 422 | 437 | 428 | 406 | 399 | 322
CCN1CCCC1CNC(=O)c1cc([S+](N)(=O)[O-])ccc1OC (stereo not given) | 467 | 470 | 455 | 476 | 467 | 469 | 453 | 460 | 470
COc1cc(C)c(Sc2cnc(NC(=O)c3ccc(CNC(C)C(C)C)cc3)s2)cc1C(=O)N1CCN(C(C)=O)CC1 (stereo not given) | 430 | 460 | 445 | 448 | 418 | 443 | 386 | 436 | 425
CO/N=C(\C(=O)N[C@@H]1C(=O)N2C(C(=O)OCOC(=O)C(C)(C)C)=C(/C=C\c3scnc3C)CS[C@H]12)c1csc(N)n1 | 453 | 448 | 398 | 463 | 449 | 451 | 419 | 412 | 453
N#C[C@H](O[C@@H]1O[C@H](CO[C@@H]2O[C@H](CO)[C@@H](O)[C@H](O)[C@H]2O)[C@@H](O)[C@H](O)[C@H]1O)c1ccccc1 | 454 | 435 | 448 | 454 | 446 | 427 | 462 | 452 | 452
NC(=O)Nc1cc(-c2cccc(F)c2)sc1C(=O)N[C@H]1CCCNC1 | 314 | 335 | 324 | 345 | 325 | 330 | 188 | 196 | 169
COc1cc(CNC(=O)CCCC/C=C/C(C)C)ccc1O | 380 | 368 | 399 | 287 | 322 | 305 | 343 | 310 | 329
C#CCN[C@@H]1CCc2ccccc21.CS(=O)(=O)O | 436 | 426 | 459 | 463 | 448 | 434 | 445 | 441 | 438
Cc1noc(-c2ccc(CSCCC(=O)O)cc2)c1NC(=O)OC(C)c1ccccc1Cl (stereo not given) | 468 | 457 | 432 | 464 | 428 | 437 | 453 | 433 | 471
NC(=O)c1ncn([C@@H]2O[C@H](CO)[C@@H](O)[C@H]2O)c1O | 465 | 468 | 460 | 464 | 463 | 464 | 473 | 474 | 457
